According to paper PMC5926251 (Japanese Journal of Cancer Research : Gann, 2000):
≈ marks a conversion by molar mass, not a printed value. Where “and” joins values, the source holds several entries; their conditions need not be identical. Identical values can stand only once. Like-named read-outs stand apart in the source and are kept apart here.

What was measured:
[1] = biological target: T1, DNA polymerase α (Bos taurus, UniProt A0AAA9TD94); assay: DNA polymerase assay, pol. α; format: biochemical, calf; settings: Table I; for MIC Pol. α: Minimum inhibitory concentration: dose that resulted in inhibition of 80% or more of the activity; for IC50: 50%-inhibitory concentration
T1 sequence (A0AAA9TD94 1-1441): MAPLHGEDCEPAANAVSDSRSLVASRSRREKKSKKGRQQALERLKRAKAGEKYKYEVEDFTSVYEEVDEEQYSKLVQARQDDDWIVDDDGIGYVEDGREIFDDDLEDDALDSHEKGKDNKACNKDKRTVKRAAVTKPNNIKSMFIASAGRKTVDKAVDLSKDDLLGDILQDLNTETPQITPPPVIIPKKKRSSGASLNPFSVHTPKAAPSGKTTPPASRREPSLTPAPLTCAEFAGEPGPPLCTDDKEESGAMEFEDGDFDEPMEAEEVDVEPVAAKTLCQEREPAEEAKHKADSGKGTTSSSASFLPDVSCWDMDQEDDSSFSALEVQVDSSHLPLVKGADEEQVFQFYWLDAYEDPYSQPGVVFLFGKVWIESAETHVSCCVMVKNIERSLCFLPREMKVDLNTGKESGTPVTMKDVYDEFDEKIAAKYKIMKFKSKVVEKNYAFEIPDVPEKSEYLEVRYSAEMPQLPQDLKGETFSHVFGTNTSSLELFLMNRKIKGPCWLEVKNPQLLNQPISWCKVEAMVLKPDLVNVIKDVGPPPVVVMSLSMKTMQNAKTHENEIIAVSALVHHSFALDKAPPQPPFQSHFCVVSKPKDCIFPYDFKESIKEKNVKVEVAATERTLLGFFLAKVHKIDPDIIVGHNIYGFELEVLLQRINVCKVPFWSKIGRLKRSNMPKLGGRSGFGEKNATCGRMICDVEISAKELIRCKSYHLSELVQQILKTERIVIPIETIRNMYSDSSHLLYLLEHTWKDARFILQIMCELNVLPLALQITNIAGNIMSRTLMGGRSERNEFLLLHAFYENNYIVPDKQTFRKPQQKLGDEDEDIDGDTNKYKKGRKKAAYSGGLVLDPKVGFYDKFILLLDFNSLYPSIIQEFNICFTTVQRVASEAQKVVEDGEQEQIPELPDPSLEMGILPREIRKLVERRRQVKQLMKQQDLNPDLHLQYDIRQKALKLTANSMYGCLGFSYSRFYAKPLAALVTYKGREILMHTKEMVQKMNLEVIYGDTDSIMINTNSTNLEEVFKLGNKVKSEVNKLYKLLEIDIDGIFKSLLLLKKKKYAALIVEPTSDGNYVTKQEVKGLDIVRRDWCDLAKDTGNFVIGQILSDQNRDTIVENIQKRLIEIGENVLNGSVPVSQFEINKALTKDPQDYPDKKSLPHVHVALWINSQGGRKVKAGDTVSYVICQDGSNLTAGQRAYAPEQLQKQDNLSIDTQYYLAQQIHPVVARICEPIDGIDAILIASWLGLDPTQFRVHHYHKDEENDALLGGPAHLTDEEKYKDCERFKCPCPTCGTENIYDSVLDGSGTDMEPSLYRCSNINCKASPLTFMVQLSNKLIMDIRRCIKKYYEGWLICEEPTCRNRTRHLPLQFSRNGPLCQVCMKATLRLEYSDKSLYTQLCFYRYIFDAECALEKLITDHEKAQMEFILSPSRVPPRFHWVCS

[2] = biological target: DNA polymerase β (Rattus norvegicus, UniProt P06766); assay: DNA polymerase assay, pol. β; format: biochemical; settings: for MIC Pol. β: Minimum inhibitory concentration: dose that resulted in inhibition of 80% or more of the activity
[3] = read-out: IC50 Pol. β, 50%-inhibitory concentration, Table I

Row | SMILES | MIC Pol. α [1] | IC50 ([1]; read-out: IC50 Pol. α) | MIC Pol. β ([2]; Table I) | IC50 [2, 3] | IC50 ([1]; IC50 Pol. α) | IC50 [2]
1 | CCCCCCCCCCCCCCCC(=O)OC[C@@H](O)CO[C@H]1O[C@H](CS(=O)(=O)O)[C@@H](O)[C@H](O)[C@H]1O [C16--SQMG] | 9.1 µM and 14 µM | 4 µM and 5.9 µM | 43 µM and 46 µM | 34 µM and 36 µM |  | 
2 | CCCCCCCCCCCCCCCC(=O)OCC(CO)OC(=O)CCCCCCCCCCCCCCC (stereo not shown) | > 1000 µM | 470 µM |  | > 1000 µM |  | 
3 | CCCCCCCCCCCCCCCC(=O)O [Palmitic acid (16:0), Palmitic acid, reference compound] | 100 µM (≈ 25.6 µg/mL) |  | 500 µM (≈ 128 µg/mL) |  | 42 µM | 290 µM
4 | CCCCCCCCCCCCCC(=O)OCC(O)CO (stereo not shown) [III&IV - - + Myristic acid (14:0)/H] | > 1000 µM | 750 µM |  | > 1000 µM |  | 
5 | CCCCCCCCCCCCCC(=O)O [Myristic acid (14:0), Myristic acid, reference compound] | 180 µM (≈ 41.1 µg/mL) |  | > 1000 µM |  | 95 µM | 440 µM
6 | C[C@@H]1OC(OCC(O)CO)[C@H](O)[C@H](O)[C@H]1O (stereo partly shown) [II&III - Rhamnose + -] |  | > 1000 µM |  | > 1000 µM |  | 
7 | C[C@@H]1OC(O)[C@H](O)[C@H](O)[C@H]1O (stereo partly shown) [II - Rhamnose - -, Rhamnose] |  | > 1000 µM |  | > 1000 µM |  | 
8 | O=S(=O)(O)C[C@@H]1OC(OCC(O)CO)[C@@H](O)[C@H](O)[C@@H]1O (stereo partly shown) [I&II&III + Fucose + -] |  | > 1000 µM |  | > 1000 µM |  | 
9 | C[C@H](O)[C@@H](O)[C@@H](O)[C@H](O)C=O [II - Fucose - -, Fucose] |  |  |  |  | > 1000 µM | > 1000 µM
10 | C[C@H]1OC(OCC(O)CO)[C@H](O)[C@@H](O)[C@@H]1O (stereo partly shown) [II&III - Quinovose + -] |  | > 1000 µM |  | > 1000 µM |  | 
